Assay results reported in patent US12546786B2, “Circulatory biomarkers for placental or fetal health” (THE UNIVERSITY OF MELBOURNE, priority 2018, dated 2026).

Tested on: HTR8 cells
Assay: HTR8 placental cell line proliferation monitored in real time using the xCELLigence system
Assay type: cell-based
Conditions: 5 or 10 uM of SRI31215 administered to HTR8 placental cell line
Protocol: FIGS. 3A through P are graphical representations showing observational studies to determine whether placental SPINT1 is altered in cases of human SGA. To do this, a cohort of placentas was selected from either control, preeclamptic or SGA pregnancies. […] No change in SPINT1 mRNA expression was detected in placentas collected from patients who delivered at >34 weeks gestation (B). SPINT1 protein expression was assessed using Western blot and commercially available antibodies (C,D). […] Growth restriction is often associated with placental insufficiency and poor oxygen delivery to the placenta, resulting in placental hypoxia. The inventors assessed whether exposure of primary placental cells (cytotrophoblast cells isolated from term human placentas) to low oxygen conditions (1% Oxygen for hypoxia vs 8% oxygen for normoxia) would alter SPINT1 mRNA and protein expression and protein secretion. […] Given previous evidence in mice that a lack of SPINT1 may be associated with a poorly developed placenta, the inventors next set out to assess whether silencing SPINT1 using siRNA knockdown in the HTR8 placental cell line would affect cellular proliferation assessed in real time using the xCELLigence system. […] To do this, a commercially available SPINT1 mimetic called SRI31215 (Glixx laboratories) was administered to HTR8 cells and their proliferation monitored using the xCELLigence system. […]

## CC1CN(CC2CCN(Cc3ccccc3)CC2)C(=O)N(c2cccc(C(=N)N)c2)C1.O=C(O)C(F)(F)F (stereo not shown) [SRI31215]
  HTR8 proliferation: enhanced HTR8 proliferation
